Values after ≈ are worked out from the molar mass of the structure shown. Each block holds one compound with its values, some of them ahead of it.
Assays:
[1] = cited from earlier work
P. aeruginosa WACC91 = assay: Minimum inhibitory concentration by broth microdilution (Example 2); type: cell-based, Pseudomonas aeruginosa
Procedure: Bacterial strains were maintained as suspensions in 20% (v/v) glycerol/Brain-Heart Infusion at −80° C. For use, a loop-full of ice was scraped from the stock and streaked for single colonies on rich media containing 1.8% agar (for Pseudomonas aeruginosa or Klebsiella pneumoniae, Luria-Bertani medium; for Staphylococcus aureus or Streptococcus pneumoniae, Trypticase Soy agar) and incubated overnight at 37° C.
A standard inoculum was prepared from broth culture. 1 to 3 colonies from an overnight agar culture plate were transferred to 5 ml of broth media and incubated at 37° C. with shaking (200 rpm) until turbidity was greater than that of a 0.5 McFarland Standard (overnight). The following broth media were used: Cation-adjusted Mueller-Hinton broth (caMHB—all strains); Roswell Park Memorial Institute medium (RPMI 1640, phenol red-free—S. aureus); Trypticase Soya Broth (TSB—S. aureus, S. pneumoniae); Todd Hewitt Broth (THB—S. pneumoniae), M63 minimal medium, supplemented with 0.2% glucose (M63—K. pneumoniae).
(§1) The broth culture was diluted in broth to a turbidity equal to a 0.5 McFarland Standard using a spectrophotometer at a wavelength of 620 nm. The 0.5 McFarland Standard was further diluted 1:100 in broth to create the standard inoculum. 50 μl of this standard inoculum was dispensed into every well in the microtitre tray, except the negative controls, where 50 μl of broth was dispensed instead.
(§2) Next, a working concentration at two times the highest target concentration for every antimicrobial was created in broth from stock solutions. 100 μl of this working concentration was pipetted into the first well, and 50 μl of broth media into all other wells. 50 μl of the first well was pipetted out and serially diluted across all wells in the row until the final concentration in the range achieved. 50 μl from the final well was removed and discarded. This produced a concentration range where each well was double the target concentration. All agents were performed in duplicate.
(§3) 96 well trays were incubated at 37° C. for 18±2 hours.

S. aureus MRSA 510 = assay: Minimum inhibitory concentration of metal salts by broth microdilution in Trypticase Soya broth (Example 4); type: cell-based, Staphylococcus aureus
Procedure: Bacterial strains were maintained as suspensions in 20% (v/v) glycerol/Brain-Heart Infusion at −80° C. For use, a loop-full of ice was scraped from the stock and streaked for single colonies on Trypticase Soya agar containing 1.8% agar and incubated overnight at 37° C.
A standard inoculum was prepared from broth culture. One to three colonies from an overnight agar culture plate were transferred to 5 ml of broth media and incubated at 37° C. with shaking (200 rpm) until turbidity was greater than that of a 0.5 McFarland Standard (overnight). All assays were performed in Trypticase Soya broth.
as §1
as §2, with “salt (in aqueous solution)” for “antimicrobial”
as §3

S. aureus 510 (MRSA) = assay: Minimum inhibitory concentration by broth microdilution (Example 2); type: cell-based, Staphylococcus aureus; conditions: unit assumed
Procedure: Bacterial strains were maintained as suspensions in 20% (v/v) glycerol/Brain-Heart Infusion at −80° C.
A standard inoculum was prepared from broth culture.
as §1, §2, §3

[2] = tested on: P. aeruginosa strain WACC91; assay: Resazurin reduction of planktonic cultures in M63 (glucose), D- versus L-Lactic acid (Example 3); type: cell-based, Pseudomonas aeruginosa
Procedure: . Viable cells reduce the blue resazurin dye to the pink, fluorescent resorufin form. Following incubation fluorescence was quantified by excitation wavelength of 540 nm and an emission wavelength of 590 nm using Enspire microplate reader.
P. aeruginosa strain WACC91 was maintained as a suspension in 20% (v/v) glycerol/Brain-Heart Infusion at −80° C. For use, a loop-full of ice was scraped from the stock and streaked for single colonies on LB media containing 1.8% agar and incubated overnight at 37° C. Isolated colonies were looped into 5 mL of LB broth and incubated at 37° C. with shaking until turbidity was greater than that of a 1.0 McFarland Standard (3-4 h).
The broth culture was diluted in M63 minimal media containing 0.2% (w/v) glucose as the sole carbon source to a turbidity equal to a 1.0 McFarland standard using a spectrophotometer at a wavelength of 595 nm. This culture was then diluted 1:100 in M63 (glucose) and 100 μL together with an additional 50 μL was transferred to each well of a 96 well microtitre tray and incubated overnight at 37° C., 5% CO2. D-Lactic acid, L-Lactic acid, or vehicle only (sterile H2O) was then applied by adding 50 μL of appropriate stock solutions diluted in M63 (glucose) and incubating for a further 24 hours at 37° C., 5% CO2. Culture metabolic activity was then determined using resazurin reduction as described above in Example 1.

[3] = antibiotic + 1 mM D-Lactic acid
[4] = antibiotic + 10 mM D-Lactic acid

SMILES: CCC(O)C(=O)O (stereo not shown) [2-hydroxybutanoic acid]
- Water solubility* [1]: 1930 mM

SMILES: O=C(O)C(O)c1ccccc1 (stereo not shown) [2-hydroxy-2-phenylacetic acid]
- Water solubility* [1]: 1140 mM

- MIC + 1 mM D-Lactic acid (P. aeruginosa WACC91; [3]): 4.0
- MIC + 10 mM D-Lactic acid (P. aeruginosa WACC91; [4]): 4.0
- MIC (P. aeruginosa WACC91; antibiotic alone): 8.0
SMILES: C[C@H]1[C@H](NC(=O)/C(=N\OC(C)(C)C(=O)O)c2csc(N)n2)C(=O)N1S(=O)(=O)O [aztreonam]

- MIC D-Lactate salt (S. aureus MRSA 510; metal ion as D-Lactate salt): 4 mM
- MIC (NO3)2 salt (S. aureus MRSA 510; metal ion as nitrate salt): 8 mM
SMILES: [Cu+2] [Cu^2+]

SMILES: CCCCC(O)C(=O)O (stereo not shown) [2-hydroxyhexanoic acid]
- Water solubility* [1]: 270 mM

SMILES: CN(C)[C@@H]1C(O)=C(C(N)=O)C(=O)[C@@]2(O)C(O)=C3C(=O)c4c(O)cccc4[C@@](C)(O)[C@H]3C[C@@H]12 [tetracycline]
- MIC + 1 mM D-Lactic acid (S. aureus 510 (MRSA); [3]): < 0.5 µg/mL
- MIC + 10 mM D-Lactic acid (S. aureus 510 (MRSA); [4]): < 0.5 µg/mL
- MIC (S. aureus 510 (MRSA); antibiotic alone): 1 µg/mL (≈ 2.25 µM)

SMILES: C[C@H](O)C(=O)O [L-Lactic acid]
- breakpoint of metabolic rate (concentration range in which the change of activity is clearest) ([2]; Resazurin reduction in comparison to vehicle-only treatment): No comparable breakpoint is observed
- change in metabolic activity ([2]; resorufin fluorescence, same concentrations as D-Lactic acid): No change in metabolic activity
